Test results taken from the CheMixHub viscosity set.

Test: xn = mol fraction of the nth substance listed

N[C@@H](Cc1c[nH]cn1)C(=O)O + O
Conditions	viscosity [mPa·s]
293.15 K, 101 kPa, x1 = 0.005413	1.128
298.15 K, 100 kPa, x1 = 0.000193	0.8927
298.15 K, 100 kPa, x1 = 0.00027	0.898
298.15 K, 100 kPa, x1 = 0.00036	0.899
298.15 K, 100 kPa, x1 = 0.000403	0.895
298.15 K, 100 kPa, x1 = 0.00063	0.904
298.15 K, 100 kPa, x1 = 0.00072	0.907
298.15 K, 100 kPa, x1 = 0.00074	0.8987
298.15 K, 100 kPa, x1 = 0.00081	0.907
298.15 K, 100 kPa, x1 = 0.00099	0.91
298.15 K, 100 kPa, x1 = 0.00117	0.913
298.15 K, 100 kPa, x1 = 0.00171	0.921
298.15 K, 100 kPa, x1 = 0.001798	0.9349
298.15 K, 100 kPa, x1 = 0.0018	0.927
298.15 K, 100 kPa, x1 = 0.002157	0.9434
298.15 K, 100 kPa, x1 = 0.002516	0.9518
298.15 K, 100 kPa, x1 = 0.002876	0.9604
298.15 K, 101 kPa, x1 = 0.00027	0.898
298.15 K, 101 kPa, x1 = 0.00063	0.9034
298.15 K, 101 kPa, x1 = 0.0013	0.9127
298.15 K, 101 kPa, x1 = 0.00207	0.9208
298.15 K, 101.3 kPa, x1 = 0.0004504	0.898
298.15 K, 101.3 kPa, x1 = 0.0008971	0.903
298.15 K, 101.3 kPa, x1 = 0.001791	0.913
298.15 K, 101.3 kPa, x1 = 0.002688	0.924
303.15 K, 100 kPa, x1 = 0.00036	0.804
303.15 K, 100 kPa, x1 = 0.00045	0.807
303.15 K, 100 kPa, x1 = 0.00054	0.807
303.15 K, 100 kPa, x1 = 0.00108	0.817
303.15 K, 100 kPa, x1 = 0.00126	0.821
303.15 K, 100 kPa, x1 = 0.00144	0.827
303.15 K, 100 kPa, x1 = 0.00153	0.824
303.15 K, 100 kPa, x1 = 0.00162	0.827
303.15 K, 100 kPa, x1 = 0.002157	0.8407
303.15 K, 100 kPa, x1 = 0.002516	0.8474
303.15 K, 100 kPa, x1 = 0.002876	0.8544
303.15 K, 101 kPa, x1 = 0.00027	0.8035
303.15 K, 101 kPa, x1 = 0.00063	0.8079
303.15 K, 101 kPa, x1 = 0.0013	0.8152
303.15 K, 101 kPa, x1 = 0.00243	0.8255
303.15 K, 101 kPa, x1 = 0.003563	0.8636
303.15 K, 101 kPa, x1 = 0.005413	0.8992
303.15 K, 101.3 kPa, x1 = 0.0004504	0.804
303.15 K, 101.3 kPa, x1 = 0.002239	0.824
308.15 K, 100 kPa, x1 = 0.00027	0.727
308.15 K, 100 kPa, x1 = 0.00054	0.727
308.15 K, 100 kPa, x1 = 0.00135	0.743
308.15 K, 100 kPa, x1 = 0.00143	0.74
308.15 K, 100 kPa, x1 = 0.00144	0.7434
308.15 K, 100 kPa, x1 = 0.00171	0.748
308.15 K, 100 kPa, x1 = 0.002157	0.7543
308.15 K, 100 kPa, x1 = 0.002516	0.7596
308.15 K, 100 kPa, x1 = 0.002876	0.7651
308.15 K, 101 kPa, x1 = 0.00027	0.724
308.15 K, 101 kPa, x1 = 0.00063	0.7274
308.15 K, 101 kPa, x1 = 0.00099	0.7304
308.15 K, 101 kPa, x1 = 0.0013	0.7334
308.15 K, 101 kPa, x1 = 0.00243	0.7421
308.15 K, 101.3 kPa, x1 = 0.0004504	0.723
308.15 K, 101.3 kPa, x1 = 0.0008971	0.728
308.15 K, 101.3 kPa, x1 = 0.001346	0.733
308.15 K, 101.3 kPa, x1 = 0.002239	0.743
308.15 K, 101.3 kPa, x1 = 0.002688	0.748
313.15 K, 100 kPa, x1 = 0.000358	0.6589
313.15 K, 100 kPa, x1 = 0.00036	0.657
313.15 K, 100 kPa, x1 = 0.00099	0.672
313.15 K, 100 kPa, x1 = 0.00171	0.682
313.15 K, 100 kPa, x1 = 0.001798	0.6769
313.15 K, 100 kPa, x1 = 0.002516	0.6853
313.15 K, 100 kPa, x1 = 0.002876	0.6895
313.15 K, 101 kPa, x1 = 0.00027	0.6566
313.15 K, 101 kPa, x1 = 0.00063	0.6592
313.15 K, 101 kPa, x1 = 0.00092	0.6773
313.15 K, 101 kPa, x1 = 0.00243	0.6716
313.15 K, 101 kPa, x1 = 0.003563	0.7141
313.15 K, 101.3 kPa, x1 = 0.0004504	0.657
313.15 K, 101.3 kPa, x1 = 0.001791	0.672
313.15 K, 101.3 kPa, x1 = 0.002239	0.677
313.15 K, 101.3 kPa, x1 = 0.002688	0.682
318.15 K, 100 kPa, x1 = 0.00027	0.603
318.15 K, 100 kPa, x1 = 0.000358	0.6026
318.15 K, 100 kPa, x1 = 0.000718	0.6065
318.15 K, 100 kPa, x1 = 0.00099	0.614
318.15 K, 100 kPa, x1 = 0.00108	0.61
318.15 K, 100 kPa, x1 = 0.00117	0.616
318.15 K, 100 kPa, x1 = 0.00135	0.618
318.15 K, 100 kPa, x1 = 0.00144	0.6135
318.15 K, 100 kPa, x1 = 0.00171	0.623
318.15 K, 100 kPa, x1 = 0.002157	0.62
318.15 K, 100 kPa, x1 = 0.002516	0.6232
318.15 K, 100 kPa, x1 = 0.002876	0.6262
318.15 K, 101.3 kPa, x1 = 0.0004504	0.598
318.15 K, 101.3 kPa, x1 = 0.0008971	0.603
318.15 K, 101.3 kPa, x1 = 0.001791	0.613
318.15 K, 101.3 kPa, x1 = 0.002239	0.618
318.15 K, 101.3 kPa, x1 = 0.002688	0.623
323.15 K, 101 kPa, x1 = 0.00092	0.5791
323.15 K, 101 kPa, x1 = 0.001804	0.5862
323.15 K, 101 kPa, x1 = 0.003563	0.6075
323.15 K, 101 kPa, x1 = 0.005413	0.6374
